Data from ChEMBL document CHEMBL1157212, “Classification of estrogen receptor-beta ligands on the basis of their binding affinities using support vector machine and linear discriminant analysis” (Eur J Med Chem, 2008).

Molecular target: Estrogen receptor beta (Homo sapiens, UniProt Q92731)
Sequence (Q92731 whole entry): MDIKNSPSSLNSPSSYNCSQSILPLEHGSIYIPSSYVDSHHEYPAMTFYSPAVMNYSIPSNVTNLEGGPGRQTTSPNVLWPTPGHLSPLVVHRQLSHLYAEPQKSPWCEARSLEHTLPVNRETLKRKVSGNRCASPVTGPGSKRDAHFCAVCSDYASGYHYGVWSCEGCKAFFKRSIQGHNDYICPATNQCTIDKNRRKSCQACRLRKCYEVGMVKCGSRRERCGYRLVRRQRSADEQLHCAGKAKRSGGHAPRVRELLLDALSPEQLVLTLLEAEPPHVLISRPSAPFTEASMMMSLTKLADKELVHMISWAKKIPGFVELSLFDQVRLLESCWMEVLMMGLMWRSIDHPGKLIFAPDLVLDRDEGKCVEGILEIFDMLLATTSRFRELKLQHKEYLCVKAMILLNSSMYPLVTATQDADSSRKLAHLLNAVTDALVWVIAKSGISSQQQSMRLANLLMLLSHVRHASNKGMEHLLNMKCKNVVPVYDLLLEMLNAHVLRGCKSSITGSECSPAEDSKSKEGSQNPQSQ
Description: Binding affinity to ERbeta

Compared with `Oc1ccc(-c2nc3cc(O)cc(Br)c3o2)c(C(F)(F)F)c1`, `O=C(O)c1cc(O)cc2nc(-c3ccc(O)cc3)oc12` is 3600-fold higher in IC50: 1.4 nM for the first, 5000 nM for the second.

With `C/C=C/c1cc(O)cc2nc(-c3ccc(O)cc3)oc12` the IC50 was 142 nM.
